Results: US20250092039A1, “GLUTARIMIDE-CONTAINING PAN-KRAS-MUTANT DEGRADER COMPOUNDS AND USES THEREOF” (Tiger Biotherapeutics Inc., priority 2022, published 2025)
pIC50: −log10 of the molar value.

Tests used:
KRAS-G12V/RAF1 = KRAS-G12V/RAF1 (Homo sapiens (Human), UniProt P01116, G12V); assay: KRAS/RAF1 binding inhibition assay (AlphaScreen)
Summary of the method: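 Binding of GppNHp-loaded KRAS G12V to the RAF1 RBD was measured by AlphaScreen with test compound present in 2% DMSO (final), 60 min incubation at 4° C. Signals were converted to % inhibition versus DMSO, and IC50 was obtained by variable-slope nonlinear regression.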

KRAS G12V = KRAS G12V (Homo sapiens (Human), UniProt P01116, G12V); assay: KRAS G12V degradation in SW620 cells (Western blot, DC50); assay type: cell-based; settings: 24 hours
Summary of the method: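 SW620 cells (homozygous KRAS G12V) were treated with compound for 24 hours at 37° C. KRAS in lysates was measured by Western blot with fluorescent secondary antibodies and expressed relative to DMSO vehicle (100%). DC50 came from a four-parameter variable-slope dose-response fit.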

SW620 cells = assay: 3D cell growth inhibition of SW620 cells carrying endogenous KRAS G12V mutation (CellTiter-Glo 3D, GI50); assay type: cell-based; settings: Homo sapiens, SW-620, 144 h; SW620 cells, 6 days; read-out: SW620 3D cell growth GI50
Summary of the method: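 SW620 cells (endogenous KRAS G12V) grown in 3D were dosed next day with compound from DMSO stocks at various concentrations, then incubated 6 days at 37° C.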

Chain of KRAS-G12V/RAF1 (P01116-2 other isoform, or with tags, fused parts or gaps G12V): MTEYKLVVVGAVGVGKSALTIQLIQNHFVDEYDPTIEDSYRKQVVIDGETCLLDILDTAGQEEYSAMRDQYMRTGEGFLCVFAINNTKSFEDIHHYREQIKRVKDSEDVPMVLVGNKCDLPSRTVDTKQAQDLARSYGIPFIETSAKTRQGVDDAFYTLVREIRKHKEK
Chain of KRAS G12V (P01116-2 other isoform, or with tags, fused parts or gaps G12V): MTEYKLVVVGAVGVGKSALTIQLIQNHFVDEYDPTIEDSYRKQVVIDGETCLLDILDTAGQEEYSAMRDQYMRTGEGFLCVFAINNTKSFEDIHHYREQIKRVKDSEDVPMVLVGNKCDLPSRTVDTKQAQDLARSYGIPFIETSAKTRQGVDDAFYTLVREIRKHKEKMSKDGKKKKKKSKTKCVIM

pIC50 (KRAS-G12V/RAF1) | DC50 (KRAS G12V) [nM] | GI50 (SW620 cells) [nM] | DC50 (KRAS G12V; cell prints a figure, not a class symbol) [nM] | SMILES
< 6.70 | 1 to 10 | < 10 | – | CCc1c(F)ccc2cc(O)cc(-c3ncc4c(N5C[C@@H]6C[C@H](C5)[C@H](O)C6)nc(OCC5(CN6CCC7(CC6)CC(CN6CCN(c8ccc9c(c8)CN([C@H]8CCC(=O)NC8=O)C9=O)CC6)C7)CC5)nc4c3F)c12 [Compound 90, (S)-3-(5-(4-((7-((1-(((7-(8-ethyl-7-fluoro-3-hydroxynaphthalen-1-yl)-8-fluoro-4-((IR,5R,6R)-6-hydroxy-3-azabicyclo[3.2.1]octan-3-yl)pyrido[4,3-d]pyrimidin-2-yl)oxy)methyl)cyclopropyl)methyl)-7-azaspiro[3.5]nonan-2-yl)methyl)piperazin-1-yl)-1-oxoisoindolin-2-yl)piperidine-2,6-dione]
6.70 to 7.70 | 1 to 10 | < 10 | – | CCc1c(F)ccc2cc(O)cc(-c3ncc4c(N5CCOCC(C)(O)C5)nc(OCC5(CN6CCC(CN7CCN(c8ccc9c(c8)CN([C@H]8CCC(=O)NC8=O)C9=O)CC7)CC6)CC5)nc4c3F)c12 (stereo partly drawn) [Compound 92, (3S)-3-(5-(4-((1-((1-(((7-(8-ethyl-7-fluoro-3-hydroxynaphthalen-1-yl)-8-fluoro-4-(6-hydroxy-6-methyl-1,4-oxazepan-4-yl)pyrido[4,3-d]pyrimidin-2-yl)oxy)methyl)cyclopropyl)methyl)piperidin-4-yl)methyl)piperazin-1-yl)-1-oxoisoindolin-2-yl)piperidine-2,6-dione]
6.70 to 7.70 | – | < 10 | 2 | CCc1c(F)ccc2cc(O)cc(-c3ncc4c(N5CCOC[C@@](C)(O)C5)nc(OCC5(CN6CCC(CN7CCN(c8ccc9c(c8)CN([C@H]8CCC(=O)NC8=O)C9=O)CC7)CC6)CC5)nc4c3F)c12 [Compound 104, (3S)-3-[5-[4-[[1-[[1-[[7-(8-ethyl-7-fluoro-3-hydroxy-1-naphthyl)-8-fluoro-4-[(6S)-6-hydroxy-6-methyl-1,4-oxazepan-4-yl]pyrido[4,3-d]pyrimidin-2-yl]oxymethyl]cyclopropyl]methyl]-4-piperidyl]methyl]piperazin-1-yl]-1-oxo-isoindolin-2-yl]piperidine-2,6-dione]
< 6.70 | 1 to 10 | < 10 | – | CCc1c(F)ccc2cc(O)cc(-c3ncc4c(N5CCCn6nc(C(=O)N(C)C)c(Cl)c6C5)nc(OCC5(CN6CCC(CN7CCN(c8ccc9c(c8)CN([C@H]8CCC(=O)NC8=O)C9=O)CC7)CC6)CC5)nc4c3F)c12 [Compound 108, (S)-3-chloro-5-(2-((1-((4-((4-(2-(2,6-dioxopiperidin-3-yl)-1-oxoisoindolin-5-yl)piperazin-1-yl)methyl)piperidin-1-yl)methyl)cyclopropyl)methoxy)-7-(8-ethyl-7-fluoro-3-hydroxynaphthalen-1-yl)-8-fluoropyrido[4,3-d]pyrimidin-4-yl)-N,N-dimethyl-5,6,7,8-tetrahydro-4H-pyrazolo[1,5-a][1,4]diazepine-2-carboxamide]
< 6.70 | > 100 | > 100 | – | CCc1cccc2cc(O)cc(-c3ncc4c(N5CCCOCC5)nc(OCC5(CN6CCC7(CC6)CC(CN6CCN(c8ccc9c(c8)CN([C@H]8CCC(=O)NC8=O)C9=O)CC6)C7)CC5)nc4c3F)c12 [Compound 109, (S)-3-(5-(4-((7-((1-(((7-(8-ethyl-3-hydroxynaphthalen-1-yl)-8-fluoro-4-(1,4-oxazepan-4-yl)pyrido[4,3-d]pyrimidin-2-yl)oxy)methyl)cyclopropyl)methyl)-7-azaspiro[3.5]nonan-2-yl)methyl)piperazin-1-yl)-1-oxoisoindolin-2-yl)piperidine-2,6-dione]
< 6.70 | > 100 | > 100 | – | CCc1cccc2cc(O)cc(-c3ncc4c(N5CCCOCC5)nc(OCC5(CN6CCC(CN7CCN(c8ccc9c(c8)CN([C@H]8CCC(=O)NC8=O)C9=O)CC7)CC6)CC5)nc4c3F)c12 [Compound 110, (S)-3-(5-(4-((1-((1-(((7-(8-ethyl-3-hydroxynaphthalen-1-yl)-8-fluoro-4-(1,4-oxazepan-4-yl)pyrido[4,3-d]pyrimidin-2-yl)oxy)methyl)cyclopropyl)methyl)piperidin-4-yl)methyl)piperazin-1-yl)-1-oxoisoindolin-2-yl)piperidine-2,6-dione]
< 6.70 | > 100 | > 100 | – | CCc1c(F)ccc2cc(O)cc(-c3ncc4c(N5CCC(O)CC5)nc(OCC5(CN6CCC7(CC6)CC(CN6CCN(c8ccc9c(c8)CN([C@H]8CCC(=O)NC8=O)C9=O)CC6)C7)CC5)nc4c3F)c12 [Compound 114, (S)-3-(5-(4-((7-((1-(((7-(8-ethyl-7-fluoro-3-hydroxynaphthalen-1-yl)-8-fluoro-4-(4-hydroxypiperidin-1-yl)pyrido[4,3-d]pyrimidin-2-yl)oxy)methyl)cyclopropyl)methyl)-7-azaspiro[3.5]nonan-2-yl)methyl)piperazin-1-yl)-1-oxoisoindolin-2-yl)piperidine-2,6-dione]
< 6.70 | > 100 | > 100 | – | CCc1c(F)ccc2cc(O)cc(-c3ncc4c(N5CCC(O)CC5)nc(OCC5(CN6CCC(CN7CCN(c8ccc9c(c8)CN([C@H]8CCC(=O)NC8=O)C9=O)CC7)CC6)CC5)nc4c3F)c12 [Compound 115, (S)-3-(5-(4-((1-((1-(((7-(8-ethyl-7-fluoro-3-hydroxynaphthalen-1-yl)-8-fluoro-4-(4-hydroxypiperidin-1-yl)pyrido[4,3-d]pyrimidin-2-yl)oxy)methyl)cyclopropyl)methyl)piperidin-4-yl)methyl)piperazin-1-yl)-1-oxoisoindolin-2-yl)piperidine-2,6-dione]
< 6.70 | 1 to 10 | > 100 | – | CCc1c(F)ccc2cc(O)cc(-c3ncc4c(N5CCC[C@@H](O)CC5)nc(OCC5(CN6CCC7(CC6)CC(CN6CCN(c8ccc9c(c8)CN([C@H]8CCC(=O)NC8=O)C9=O)CC6)C7)CC5)nc4c3F)c12 [Compound 116, (S)-3-(5-(4-((7-((1-(((7-(8-ethyl-7-fluoro-3-hydroxynaphthalen-1-yl)-8-fluoro-4-((R)-4-hydroxyazepan-1-yl)pyrido[4,3-d]pyrimidin-2-yl)oxy)methyl)cyclopropyl)methyl)-7-azaspiro[3.5]nonan-2-yl)methyl)piperazin-1-yl)-1-oxoisoindolin-2-yl)piperidine-2,6-dione]
< 6.70 | 1 to 10 | > 100 | – | CCc1c(F)ccc2cc(O)cc(-c3ncc4c(N5CCC[C@@H](O)CC5)nc(OCC5(CN6CCC(CN7CCN(c8ccc9c(c8)CN([C@H]8CCC(=O)NC8=O)C9=O)CC7)CC6)CC5)nc4c3F)c12 [Compound 117, (S)-3-(5-(4-((1-((1-(((7-(8-ethyl-7-fluoro-3-hydroxynaphthalen-1-yl)-8-fluoro-4-((R)-4-hydroxyazepan-1-yl)pyrido[4,3-d]pyrimidin-2-yl)oxy)methyl)cyclopropyl)methyl)piperidin-4-yl)methyl)piperazin-1-yl)-1-oxoisoindolin-2-yl)piperidine-2,6-dione]
< 6.70 | > 100 | > 100 | – | C#Cc1c(F)ccc2cc(N)cc(-c3ncc4c(N5CCC[C@@](C)(O)C5)nc(OCC5(CN6CCC(CN7CCN(c8ccc9c(c8)CN([C@H]8CCC(=O)NC8=O)C9=O)CC7)CC6)CC5)nc4c3F)c12 [Compound 118, (S)-3-(5-(4-((1-((1-(((7-(3-amino-8-ethynyl-7-fluoronaphthalen-1-yl)-8-fluoro-4-((R)-3-hydroxy-3-methylpiperidin-1-yl)pyrido[4,3-d]pyrimidin-2-yl)oxy)methyl)cyclopropyl)methyl)piperidin-4-yl)methyl)piperazin-1-yl)-1-oxoisoindolin-2-yl)piperidine-2,6-dione]
< 6.70 | > 100 | > 100 | – | C#Cc1c(F)ccc2cc(N)cc(-c3ncc4c(N5CCC[C@@](C)(O)C5)nc(OCC5(CN6CCC7(CC6)CC(CN6CCN(c8ccc9c(c8)CN([C@H]8CCC(=O)NC8=O)C9=O)CC6)C7)CC5)nc4c3F)c12 [Compound 119, (S)-3-(5-(4-((7-((1-(((7-(3-amino-8-ethynyl-7-fluoronaphthalen-1-yl)-8-fluoro-4-((R)-3-hydroxy-3-methylpiperidin-1-yl)pyrido[4,3-d]pyrimidin-2-yl)oxy)methyl)cyclopropyl)methyl)-7-azaspiro[3.5]nonan-2-yl)methyl)piperazin-1-yl)-1-oxoisoindolin-2-yl)piperidine-2,6-dione]

SMILES | pIC50 (KRAS-G12V/RAF1) | DC50 (KRAS G12V) [nM] | GI50 (SW620 cells) [nM] | DC50 (KRAS G12V; cell prints a figure, not a class symbol) [nM]
CCc1c(F)ccc2cc(O)cc(-c3ncc4c(N5CCOC[C@@](C)(O)C5)nc(OCC5(CN6CCC7(CC6)CC(CN6CCN(c8ccc9c(c8)CN([C@H]8CCC(=O)NC8=O)C9=O)CC6)C7)CC5)nc4c3F)c12 [Compound 105, (S)-3-(5-(4-((7-((1-(((7-(8-ethyl-7-fluoro-3-hydroxynaphthalen-1-yl)-8-fluoro-4-((S)-6-hydroxy-6-methyl-1,4-oxazepan-4-yl)pyrido[4,3-d]pyrimidin-2-yl)oxy)methyl)cyclopropyl)methyl)-7-azaspiro[3.5]nonan-2-yl)methyl)piperazin-1-yl)-1-oxoisoindolin-2-yl)piperidine-2,6-dione] | 6.70 to 7.70 | > 100 | > 100 | –
